The source of these data is PubChem BioAssay AID977629 (Broad Institute, 2014).

Test [1] has as its system E. coli WT-RFP / h24-humanized GFP mixed culture, 24 h. The test is described as follows: growth inhibition of wild-type RFP versus h24-humanized GFP E. coli, dose response, h24 mutant GFP vs wild-type RFP, cherry-pick (AID 977629).
Assay in test [2]: as above
Particulars: E. coli WT-RFP / h24-humanized GFP mixed culture, 24 h; at 50 µM (top of the series).

[3] abbreviates: measured here: h24 humanized mutant GFP signal.
Where [4] appears, read: measured here: total growth OD600.

Inconclusive results are not listed. Calls of active or inactive are those of the source.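 The calls were made as follows: active = drop in red signal of normal-ribosome bacteria at least twice that in human-like-ribosome bacteria, growth inhibited under 30%; inactive = the rest, inconclusive results apart.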

As a reminder, the AC50 is the midpoint of the concentration-response curve, whichever way the signal moves. As to `O=C(O)c1cc([N+](=O)[O-])ccc1NCc1ccccc1`, the AC50 in test [1] (setting [3]) was above 100 µM; in test [1] (setting [4]), 5.79 µM. Further, the activity change, negative = inhibition in test [2] was -0.454 (inactive).
Take `COC(=O)c1c(NC(=O)CCC(=O)O)sc(Cc2ccccc2)c1C`: the AC50 in test [1] was > 100 µM (inactive); in test [1] (setting [4]) it was 30 µM.
In the case of `Cc1noc(C)c1NC(=O)Nc1ccc2c(c1)C(=O)N([C@H](C)CO)C[C@@H](C)[C@@H](CN(C)C(=O)Nc1ccc3c(c1)OCO3)OCCCC[C@@H](C)O2`, the activity change, negative = inhibition in test [2] is 86.8 (inactive).
`COc1ccc(-n2cc(-c3ccccc3)c3c(N4CCOCC4)ncnc32)cc1` returned an AC50 in test [1] (setting [4]) of 27.8 µM. For the same compound, the activity change, negative = inhibition in test [2] is 12.7 (inactive).
On the same counts, the results for `C[C@@H]1CCCCO[C@H](CN(C)C(=O)CCCN(C)C)[C@H](C)CN([C@@H](C)CO)C(=O)c2cc(NC(=O)Nc3cccc4ccccc34)ccc2O1` are above 100 µM and 101 (inactive).
Regarding `COc1ccc2[nH]c3c(=O)n(CCCCC(=O)NCCC(C)C)c(=S)[nH]c3c2c1`, in test [2], the activity change, negative = inhibition is 64.3 (inactive).
For `CCN(CC)CCn1c2ccccc2c2nc3ccc([N+](=O)[O-])cc3cc21`, the figures for the AC50 in test [1] (setting [3]) and in test [1] (setting [4]) were 6.47 µM and 7.41 µM, respectively. Further, in test [2], the activity change, negative = inhibition was 21.8 (inactive).
Take `Cc1ccc(C)c(NC(=O)CSc2nc3nc(-c4cccs4)cc(C(F)(F)F)c3c(=O)[nH]2)c1`: the AC50 was determined as 31.6 µM in test [1] (setting [3]) and 20.1 µM in test [1] (setting [4]). Besides, the activity change, negative = inhibition in test [2] is 52.6 (inactive).
For `COc1ccc(Cn2c(-c3ccc(Cl)cc3)c[n+]3ccccc23)cc1`, the activity change, negative = inhibition in test [2] is 21 (inactive).
